The text below walks through data of patent publication US20250297244A1, “COMPOSITIONS AND METHODS FOR THE DIAGNOSIS AND TREATMENT OF SEVERE COVID 19 AND OTHER IN[…]” (THE CHILDREN'S HOSPITAL OF PHILADELPHIA, priority 2022, published 2025).

Entries after “also recorded” stand apart in the source; their conditions may differ.

The target in assay [1] is dihydrofolate reductase (DHFR) (Homo sapiens, UniProt P00374). Conditions: in vitro studies; cited from earlier work.
The target in assay [2] is thymidylate synthase (TS) (Homo sapiens, UniProt P04818). Conditions: in vitro studies; cited from earlier work.
thymidylate synthase (TS), sequence (P04818 whole entry, species assumed): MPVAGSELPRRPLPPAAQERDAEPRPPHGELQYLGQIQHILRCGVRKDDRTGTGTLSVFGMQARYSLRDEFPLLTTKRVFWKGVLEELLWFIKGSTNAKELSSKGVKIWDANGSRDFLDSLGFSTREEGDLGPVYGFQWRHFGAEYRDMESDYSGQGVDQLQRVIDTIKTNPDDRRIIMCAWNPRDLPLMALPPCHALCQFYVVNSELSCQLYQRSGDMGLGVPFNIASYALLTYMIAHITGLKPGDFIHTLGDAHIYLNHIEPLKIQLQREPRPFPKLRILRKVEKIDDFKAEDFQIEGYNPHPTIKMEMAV
In another assay the test system is murine Th2 cells. In words: IL-4 production by murine Th2 cells after in vitro activation. It counts as cell-based. Conditions: low doses; anti-CD3+anti-CD28 beads for 6 hours. As for the experimental part: (§1) FIGS. 14A-14B. Dose-dependent effect of lometrexol on IFNg production by murine Th1 cells (FIG. 14A) and IL-4 production by murine Th2 cells (FIG. 14B) following in vitro activation with anti-CD3+anti-CD28 beads for 6 hours.

Another assay deals with murine Th1 cells. As to the kind of experiment: IFNg production by murine Th1 cells after in vitro activation. It is filed as cell-based. Conditions: low doses; anti-CD3+anti-CD28 beads for 6 hours. As for the experimental part:
as §1

In the next assay the test system is human CD4+ T cells. In words: proliferation of activated human CD4+ T cells (anti-CD3+anti-CD28 beads, CFSE flow cytometry). Conditions: activated in vitro for 72 hours with anti-CD3+anti-CD28 beads. It is filed as cell-based. As for the experimental part:
FIG. 13. […] Human CD4+ T cells were activated in vitro for 72 hours using anti-CD3+anti-CD28 beads, and cell division was monitored by flow cytometry using CFSE, and the number of daughter cells generated was determined.

In assay [3] the test system is human tonsillar organoids. As to the kind of experiment: in vitro human tonsillar organoid model of T cell-dependent germinal center B cell differentiation. It is filed as cell-based.

dihydrofolate reductase (DHFR), sequence (P00374 whole entry, species assumed): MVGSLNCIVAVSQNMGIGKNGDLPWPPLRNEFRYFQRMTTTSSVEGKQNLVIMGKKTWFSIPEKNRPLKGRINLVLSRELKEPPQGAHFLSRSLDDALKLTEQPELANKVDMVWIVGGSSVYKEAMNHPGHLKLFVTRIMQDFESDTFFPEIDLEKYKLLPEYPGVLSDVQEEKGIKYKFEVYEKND

In the case of `Nc1nc2[nH]cc(CCc3ccc(C(=O)N[C@@H](CCC(=O)O)C(=O)O)cc3)c2c(=O)[nH]1` [pemetrexed], the “inhibition of dihydrofolate reductase (DHFR)” value in assay [1] was “inhibits”. For the same molecule, the “inhibition of thymidylate synthase (TS)” value in assay [2] is listed as “inhibits”.

Turning to `Nc1nc2c(c(=O)[nH]1)C[C@@H](CCc1ccc(C(=O)N[C@@H](CCC(=O)O)C(=O)O)cc1)CN2` [lometrexol], the “production of IL-4 from Th2 cells” value in the assay with murine Th2 cells is given as “at low doses enhances”. Besides, the “production of IFNγ from Th1 cells” value with murine Th1 cells is “at low doses enhances”. Moreover, the “proliferation of activated CD4+ T cells (cell division, number of daughter cells)” value in the assay with human CD4+ T cells was “can inhibit; also recorded: Dose-dependent inhibition”. Further, the “CD27+CD38+ GCB cell plasmablast differentiation / plasmablast frequency” value in assay [3] (day 7 of culture, lometrexol added after 48 hours, three tonsil donors) is given as “abrogated plasmablast differentiation in a dose-dependent manner; also recorded: Plasmablast frequency diminishment”. In assay [3] (day 7 tonsillar organoids), the “B or T cell survival (viability)” value was “without affecting” and the TFH frequency entry is recorded as “without affecting”. Besides, in assay [3] (tonsil organoid system), the “T cell-B cell collaboration (humoral immune response)” value is given as “blocks”.
